Where two headings read alike, the source gives them in different places.

The term viability denotes a read-out of living cells in per cent, often relative to untreated cells.

For series [1], the target named is T1, BSA (Bos taurus, UniProt P02769).
T1 construct: gene ALB
Also noted: Intact protein LC/MS covalent labelling, fragments in pools of five, 200 uM each, 4 °C. The note with it: 24 h, 4 °C, pool of five; 200 µM; covalent.

Series [2] has as its target T2, OTUB2 (OTUB2A) (Homo sapiens, UniProt Q96DC9).
T2 construct: full length residues 1-234, E. coli BL21(DE3)-R3, His tag removed by TEV, construct 27312 Da
T2 sequence (Q96DC9 1-234): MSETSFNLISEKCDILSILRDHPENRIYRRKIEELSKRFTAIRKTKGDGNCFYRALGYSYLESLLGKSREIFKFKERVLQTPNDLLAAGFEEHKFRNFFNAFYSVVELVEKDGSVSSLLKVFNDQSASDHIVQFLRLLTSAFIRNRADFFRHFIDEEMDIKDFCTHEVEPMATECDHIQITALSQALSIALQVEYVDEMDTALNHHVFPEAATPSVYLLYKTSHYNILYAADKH
The arrangement: Intact protein LC/MS covalent labelling, fragments in pools of five, 200 uM each, 4 °C. The settings on record: 24 h, 4 °C, pool of five; 200 µM; covalent.

Series [3] addresses T3, NUDT7 (Homo sapiens, UniProt P0C024).
T3 construct: residues 14-235, E. coli, pNIC28-Bsa4, N-terminal His6 tag removed by TEV, construct 26672 Da
Also noted: Intact protein LC/MS covalent labelling, fragments in pools of five, 200 uM each, 4 °C. The settings on record: 24 h, 4 °C, pool of five; 200 µM; covalent.

In series [4] the target is T4, PCAF (Homo sapiens, UniProt Q92831).
T4 construct: gene KAT2B
The arrangement: Intact protein LC/MS covalent labelling, fragments in pools of five, 200 uM each, 4 °C. The settings on record: 24 h, 4 °C, pool of five; 200 µM; covalent.

For series [5], the target named is T5, NNMT (hNNMT) (Homo sapiens, UniProt P40261).
T5 construct: wild type, N-terminal His6 tag kept (no cleavage described), E. coli, construct 31248 Da
T5 sequence (P40261 1-264): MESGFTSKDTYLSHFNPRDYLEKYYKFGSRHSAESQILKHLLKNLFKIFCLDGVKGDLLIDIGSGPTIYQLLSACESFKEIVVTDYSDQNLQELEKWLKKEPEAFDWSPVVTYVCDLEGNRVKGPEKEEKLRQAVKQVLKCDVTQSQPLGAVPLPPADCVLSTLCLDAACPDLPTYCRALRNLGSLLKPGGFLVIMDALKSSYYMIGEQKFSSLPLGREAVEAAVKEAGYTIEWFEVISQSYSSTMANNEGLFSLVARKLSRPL
Also noted: Intact protein LC/MS covalent labelling, fragments in pools of five, 200 uM each, 4 °C. The note with it: 24 h, 4 °C, pool of five; 200 µM; covalent.

Series [6] can be described thus: in vitro. The arrangement: species or system HB2, CCD841. The settings on record: human, hek293 cells.
Series [7] in a line: in vitro. The arrangement: species or system HB2, HEK293. The settings on record: human, ccd841 cells.
Series [8] is described as follows: in vitro. Also noted: species or system CCD841, HEK293. The note with it: human, hb2 cells, read-out: HB-2 Cells Viability (%).

T1 sequence (P02769 whole entry): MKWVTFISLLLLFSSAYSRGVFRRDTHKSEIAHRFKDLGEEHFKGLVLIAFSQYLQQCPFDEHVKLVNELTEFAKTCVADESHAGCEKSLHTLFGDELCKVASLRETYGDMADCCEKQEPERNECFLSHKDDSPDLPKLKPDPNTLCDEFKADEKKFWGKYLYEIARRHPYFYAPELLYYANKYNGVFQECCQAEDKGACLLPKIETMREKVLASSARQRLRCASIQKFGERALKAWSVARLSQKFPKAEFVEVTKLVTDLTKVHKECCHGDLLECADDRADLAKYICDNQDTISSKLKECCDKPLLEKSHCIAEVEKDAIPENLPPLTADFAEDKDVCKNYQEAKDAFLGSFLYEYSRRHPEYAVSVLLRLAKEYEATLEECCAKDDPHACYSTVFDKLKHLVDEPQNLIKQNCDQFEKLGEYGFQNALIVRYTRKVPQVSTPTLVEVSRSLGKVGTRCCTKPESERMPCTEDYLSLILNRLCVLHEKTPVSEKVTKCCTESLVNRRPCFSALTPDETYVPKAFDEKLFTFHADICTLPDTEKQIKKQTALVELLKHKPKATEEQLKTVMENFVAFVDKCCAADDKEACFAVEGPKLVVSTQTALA
T4 sequence (Q92831 whole entry): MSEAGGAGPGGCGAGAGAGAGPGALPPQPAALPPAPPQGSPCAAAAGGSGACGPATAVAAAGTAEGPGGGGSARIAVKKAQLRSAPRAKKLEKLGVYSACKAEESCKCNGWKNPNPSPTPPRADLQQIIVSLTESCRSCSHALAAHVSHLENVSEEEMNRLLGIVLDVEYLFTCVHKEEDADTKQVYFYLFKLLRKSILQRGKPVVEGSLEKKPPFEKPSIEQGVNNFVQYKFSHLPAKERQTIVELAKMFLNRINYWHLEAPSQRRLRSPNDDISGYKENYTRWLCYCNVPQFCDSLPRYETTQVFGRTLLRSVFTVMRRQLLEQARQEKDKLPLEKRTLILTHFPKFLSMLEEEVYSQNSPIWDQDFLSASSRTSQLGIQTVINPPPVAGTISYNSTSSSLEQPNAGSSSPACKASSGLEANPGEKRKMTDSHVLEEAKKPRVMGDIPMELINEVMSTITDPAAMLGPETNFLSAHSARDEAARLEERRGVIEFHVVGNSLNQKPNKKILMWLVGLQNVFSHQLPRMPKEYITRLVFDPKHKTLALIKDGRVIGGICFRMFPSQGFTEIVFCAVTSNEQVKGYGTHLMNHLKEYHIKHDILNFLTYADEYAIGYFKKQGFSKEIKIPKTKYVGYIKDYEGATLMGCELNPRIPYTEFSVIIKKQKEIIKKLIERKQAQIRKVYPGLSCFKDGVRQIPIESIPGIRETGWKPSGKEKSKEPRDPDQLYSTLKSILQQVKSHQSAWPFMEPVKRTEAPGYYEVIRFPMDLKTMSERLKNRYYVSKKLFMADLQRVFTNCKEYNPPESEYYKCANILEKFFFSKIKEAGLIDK
T3 sequence (P0C024 14-235): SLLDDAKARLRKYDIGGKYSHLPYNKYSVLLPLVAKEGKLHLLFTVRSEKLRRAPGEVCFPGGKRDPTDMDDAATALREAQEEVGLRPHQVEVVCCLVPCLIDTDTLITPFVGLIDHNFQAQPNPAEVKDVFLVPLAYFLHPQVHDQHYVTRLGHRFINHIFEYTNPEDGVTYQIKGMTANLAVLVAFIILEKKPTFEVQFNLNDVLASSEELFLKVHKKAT

For `C=CC(=O)N1CCCCC1c1cnn(C)c1` (stereo not shown) [PCM-0102675], the BSA in series [1] was found to be 0. In series [2], this molecule gave an OTUB2 of 0. The NUDT7 in series [3] worked out at 0.1. The molecule also yielded a PCAF in series [4] of 0. Further, the NNMT in series [5] came out at 0. Further, the viability at 48 h, 10 µM in series [6] stood at 88.5%; in series [7] it was 103%; in series [8], 95.7%.

In series [1], `COc1ccc(NC(=O)CCl)cc1Cl` [PCM-0102652] came in with a BSA of 0. In addition, the OTUB2 in series [2] is listed as 0.24. The NUDT7 in series [3] amounted to 0.12. This molecule also registered a PCAF in series [4] of 0. Also, the NNMT in series [5] was found to be 0.83. Besides, the viability at 48 h, 10 µM came to 2.6% in series [6], 29.3% in series [7] and 10% in series [8].

In turn, `CS(=O)(=O)c1cccc(NC(=O)CCl)c1` [PCM-0102407] displayed a BSA in series [1] of 0. Further, the OTUB2 in series [2] stood at 0.33. For the same molecule, in series [3], the NUDT7 is listed as 0. The PCAF in series [4] was found to be 0. In addition, the NNMT in series [5] amounted to 0. Further, the viability at 48 h, 10 µM came out at 1.4% in series [6], 47% in series [7] and 26.4% in series [8].

Take `C=CC(=O)N1CCC(C(=O)Nc2cc(C)on2)CC1` [PCM-0102477]: in series [1], the BSA is reported as 0. The molecule further gave an OTUB2 in series [2] of 0. Also, the NUDT7 in series [3] is 0. The same molecule registered a PCAF in series [4] of 0. The molecule further yielded an NNMT in series [5] of 0. Moreover, the viability at 48 h, 10 µM in series [6] was 86.9%; in series [7], 115%; in series [8] it was 99.4%.

`Cc1ccc(-c2cc(NC(=O)CCl)on2)cc1` [PCM-0102382] yielded a BSA in series [1] of 0. The OTUB2 in series [2] turned out to be 0.45. The NUDT7 in series [3] was determined as 0.81. This molecule also came in with a PCAF in series [4] of 0. For the same molecule, in series [5], the NNMT worked out at 0.64. For the same molecule, the viability at 48 h, 10 µM in series [6] stood at 52.2%; in series [7] it was 54.6%; in series [8], 42.7%.

In series [1], `Cc1cc(C)c(NC(=O)CCl)c(Cl)c1` [PCM-0102994] registered a BSA of 0. The molecule also returned an OTUB2 in series [2] of 0. In series [3], the NUDT7 stood at 0.26. Moreover, in series [4], the PCAF was determined as 0. The molecule further showed an NNMT in series [5] of 0.46. Further, the viability at 48 h, 10 µM amounted to 74.1% in series [6], 73.1% in series [7] and 94% in series [8].

As to `O=C(CCl)NC1CCCC1` [PCM-0102250], in series [1], the BSA is listed as 0. The OTUB2 in series [2] stood at 0. In series [3], this molecule registered an NUDT7 of 0. Further, the PCAF in series [4] was 0. Also, the NNMT in series [5] stood at 0. Further, the figures for the viability at 48 h, 10 µM in series [6], in series [7] and in series [8] were 58.7%, 69.1% and 71.9%, respectively.

`O=C(CCl)N1CCCCC1` [PCM-0102514]: in series [1], the BSA is listed as 0. The molecule also displayed an OTUB2 in series [2] of 0. Also, the NUDT7 in series [3] was found to be 0. Further, the PCAF in series [4] was 0. Besides, the NNMT in series [5] is 0. The viability at 48 h, 10 µM in series [6] is 90.8%; in series [7], 88.1%; in series [8], 92.8%.

Take `O=C(CCl)Nc1cccc(C(F)(F)F)c1` [PCM-0102290]: in series [1], the BSA is listed as 0. In series [2], the OTUB2 came out at 0.26. This molecule had an NUDT7 in series [3] of 0.12. In series [4], this molecule had a PCAF of 0. Besides, the NNMT in series [5] worked out at 0.77. Besides, the viability at 48 h, 10 µM in series [6] was 2.3%; in series [7], 40%; in series [8], 9.5%.

`Cc1cc(Br)ccc1NC(=O)CCl` [PCM-0102799] yielded a BSA in series [1] of 0. In addition, the OTUB2 in series [2] is recorded as 0.61. The molecule further registered an NUDT7 in series [3] of 0.24. Moreover, in series [4], the PCAF was 0. Moreover, the NNMT in series [5] is listed as 0.39. Also, the viability at 48 h, 10 µM amounted to 4.7% in series [6], 63.3% in series [7] and 34.9% in series [8].

In turn, `C=CC(=O)N1CCNC(=O)C1c1c(F)cccc1Cl` (stereo not shown) [PCM-0102490] registered a BSA in series [1] of 0. The OTUB2 in series [2] was 0. Further, the NUDT7 in series [3] was found to be 0. The molecule also came in with a PCAF in series [4] of 0. Also, in series [5], the NNMT was determined as 0. Besides, the viability at 48 h, 10 µM in series [6] was determined as 104%; in series [7], 95.5%; in series [8], 98.5%.

In series [1], `NS(=O)(=O)c1ccc(NC(=O)CCl)cc1` [PCM-0102807] gave a BSA of 0. In series [2], this molecule came in with an OTUB2 of 0.29. This molecule registered an NUDT7 in series [3] of 0. Moreover, in series [4], the PCAF worked out at 0. In addition, the NNMT in series [5] came out at 0. Also, the figures for the viability at 48 h, 10 µM in series [6], in series [7] and in series [8] were 8%, 56.9% and 53.8%, respectively.

Consider `CC(=O)NNC(=O)CCl` [PCM-0102310], for which the BSA in series [1] turned out to be 0. In series [2], this molecule displayed an OTUB2 of 0.18. This molecule registered an NUDT7 in series [3] of 0. In series [4], this molecule came in with a PCAF of 0. In series [5], this molecule returned an NNMT of 0. Further, the figures for the viability at 48 h, 10 µM in series [6], in series [7] and in series [8] were 84.1%, 90.3% and 96.1%, respectively.

In series [1], `O=C(CCl)Nc1ccccc1N1CCOCC1` [PCM-0102416] yielded a BSA of 0. Moreover, in series [2], the OTUB2 turned out to be 0. In addition, in series [3], the NUDT7 is on record as 0. Besides, the PCAF in series [4] was 0. Further, the NNMT in series [5] is recorded as 0. In addition, the figures for the viability at 48 h, 10 µM in series [6], in series [7] and in series [8] were 113%, 90.7% and 99.5%, respectively.

In series [1], `C=CC(=O)N1CCN(C(=O)Nc2ccc(C)c(Cl)c2)CC1` [PCM-0102604] had a BSA of 0. This molecule had an OTUB2 in series [2] of 0. Moreover, the NUDT7 in series [3] is on record as 0. Further, the PCAF in series [4] worked out at 0. In addition, in series [5], the NNMT is 0. In addition, the viability at 48 h, 10 µM in series [6] is 91.5%; in series [7] it was 122%; in series [8] it was 74.6%.

Take `C=CC(=O)N1CCCC1C1COCCC1(C)O` (stereo not shown) [PCM-0102571]: the BSA in series [1] was determined as 0. For the same molecule, the OTUB2 in series [2] was 0. This molecule had an NUDT7 in series [3] of 0. Also, the PCAF in series [4] was 0. Moreover, the NNMT in series [5] is reported as 0. The viability at 48 h, 10 µM in series [6] was found to be 104%; in series [7], 107%; in series [8], 107%.

`O=C(CCl)NNC(=O)c1ccc([N+](=O)[O-])cc1` [PCM-0102885] came in with a BSA in series [1] of 0. The molecule also registered an OTUB2 in series [2] of 0.21. For the same molecule, the NUDT7 in series [3] is reported as 0. Also, in series [4], the PCAF came to 0. In addition, the NNMT in series [5] is 0. The viability at 48 h, 10 µM in series [6] was determined as 92.9%; in series [7], 83.3%; in series [8], 91%.

In turn, `Cc1cccc(C(=O)NNC(=O)CCl)c1` [PCM-0102737] showed a BSA in series [1] of 0. Also, in series [2], the OTUB2 was 0.54. The same molecule had an NUDT7 in series [3] of 0. In series [4], this molecule registered a PCAF of 0. For the same molecule, the NNMT in series [5] is 0. For the same molecule, the results for the viability at 48 h, 10 µM in series [6], in series [7] and in series [8] were 83.7%, 80% and 82.1%, respectively.

`CC(=O)c1oc2ccccc2c1NC(=O)CCl` [PCM-0102918] showed a BSA in series [1] of 0. In series [2], this molecule yielded an OTUB2 of 0. The molecule further registered an NUDT7 in series [3] of 0.39. In addition, in series [4], the PCAF was 0. This molecule registered an NNMT in series [5] of 0.56. Further, the viability at 48 h, 10 µM came to 36.8% in series [6], 65.3% in series [7] and 42.4% in series [8].

For `Cc1oc(NC(=O)CCl)c(C#N)c1C` [PCM-0102337], the BSA in series [1] is reported as 0. This molecule also gave an OTUB2 in series [2] of 0.45. Further, the NUDT7 in series [3] is 0. For the same molecule, the PCAF in series [4] was determined as 0. Further, in series [5], the NNMT is 0.53. Also, the viability at 48 h, 10 µM in series [6] worked out at 82.9%; in series [7], 56.4%; in series [8], 56.5%.

These data come from publication PMC6556873, “Rapid Covalent-Probe Discovery by Electrophile-Fragment Screening” (Journal of the American Chemical Society, 2019).
